Patent EP2537923A1, “Method for activation of specific peripheral blood mononuclear cells” (Oncotyrol Center for Personalized Cancer Medicine GmbH, priority 2011, dated 2012)

System: human PBMCs
Assay: Stimulation of PBMCs with anti-CD1b antibody and/or IL-2, cytokines measured in culture supernatants
Type: cell-based
Conditions: PMB at 10 µg/ml (60 U/ml); anti-CD16 as Fc γ receptor blocking antibody
From the text: PBMCs are then separated from whole blood or from leukapheresis products. Any method for separating mononuclear cells may be used. For example, the Ficoll separation method, i.e., a Ficoll-Paque density gradient is frequently used. For this purpose LSM1077 Lymphocyte Separation Medium (PAA, Pasching, Austria) in combination with Leucosep (greiner bio-one, Frickenhausen, Germany) can be used for the optimal separation of PBMCs.
The whole PBMCs or the CD56-positive PBMCs obtained are resuspended preferably at cell numbers of 1.0-1.5 x 10^6/ml in a cell culture medium such as RPMI-1640 (Lonza, Basel, Switzerland), AIM-V (Invitrogen, Carlsbad, CA, USA) or CellGro SCGM (CellGenix, Freiburg, Germany). The cell culture medium may be further supplemented with autologous or clinical quality heterologous serum or plasma at 1-20%. There is no limitation for the culture vessels used, which may be a plate, laboratory dish, flask, bag typically used for cell cultivation.
An antibody directed against CDlb (clone B-B5 from Diaclone, Besancon, France or clone WM25 from ImmunoKontact via AMS Biotechnology, Lugano, Switzerland) is added to these cultures. […] Activation as detected by the BD FastImmune (BD Biosciences, San Jose, CA, USA) of NK cells and T cells (both αß T cells and γδ T cells) occurs already within the first 12 to 16 hours. […]

Substance: polymyxin B [PMB]
- effect on IFN-γ production / response induced by CDlb antibodies: failed to abolish
